# Like-named read-outs stand apart in the source and are kept apart here.
# How the values were obtained:
# integrin αvβ5 = integrin αvβ5 (Homo sapiens, UniProt P06756+P18084); assay: integrin αvβ5-mediated cell attachment to ligand; type: cell-based; details: mean and SD, at least 3 independent assays; read-out: IC50, inhibition of αvβ5-mediated cell attachment
# Method: (§1) The RGD peptidomimetic CWHM‐12 was synthesized as described in detail previously (Henderson et al., 2013). A close structural analog of this compound with improved oral bioavailability, CWHM‐680, was also synthesized at Saint Louis University. Potency for the compounds in blocking cell attachment mediated by integrins αvβ3, αvβ5, and αvβ6 was measured as previously described (Henderson et al., 2013). Potency for blocking cell attachment mediated by integrins αvβ1, αvβ8, and α8β1 was measured using modifications of this method which are briefly summarized as follows: To assess CWHM‐12 and CWHM‐680 effects on cellular αvβ1 function, we varied its concentration in an assay measuring binding of HEK‐293 cells, which naturally express this integrin (Nagarajan et al., 2007), to the surface of 96‐well plates coated with purified recombinant human TGFβ‐1 latency‐associated peptide (R&D Systems). To assess the effect on cellular αvβ8 function, we performed the assay with the same LAP ligand but with HEK‐293 cells which had been stably transfected to overexpress this integrin. To assess the effect on cellular α8β1 function, we performed the assay using HEK‐293 cells, which had been stably transfected to overexpress this integrin and used purified recombinant mouse nephronectin as the immobilized ligand (R&D Systems). […]
# integrin αvβ6 = integrin αvβ6 (Homo sapiens, UniProt P06756+P18564); assay: integrin αvβ6-mediated cell attachment to ligand; type: cell-based; details: mean and SD, at least 3 independent assays, read-out: IC50, inhibition of αvβ6-mediated cell attachment
# Chain of integrin αvβ6 (P06756 31-889 limits assumed): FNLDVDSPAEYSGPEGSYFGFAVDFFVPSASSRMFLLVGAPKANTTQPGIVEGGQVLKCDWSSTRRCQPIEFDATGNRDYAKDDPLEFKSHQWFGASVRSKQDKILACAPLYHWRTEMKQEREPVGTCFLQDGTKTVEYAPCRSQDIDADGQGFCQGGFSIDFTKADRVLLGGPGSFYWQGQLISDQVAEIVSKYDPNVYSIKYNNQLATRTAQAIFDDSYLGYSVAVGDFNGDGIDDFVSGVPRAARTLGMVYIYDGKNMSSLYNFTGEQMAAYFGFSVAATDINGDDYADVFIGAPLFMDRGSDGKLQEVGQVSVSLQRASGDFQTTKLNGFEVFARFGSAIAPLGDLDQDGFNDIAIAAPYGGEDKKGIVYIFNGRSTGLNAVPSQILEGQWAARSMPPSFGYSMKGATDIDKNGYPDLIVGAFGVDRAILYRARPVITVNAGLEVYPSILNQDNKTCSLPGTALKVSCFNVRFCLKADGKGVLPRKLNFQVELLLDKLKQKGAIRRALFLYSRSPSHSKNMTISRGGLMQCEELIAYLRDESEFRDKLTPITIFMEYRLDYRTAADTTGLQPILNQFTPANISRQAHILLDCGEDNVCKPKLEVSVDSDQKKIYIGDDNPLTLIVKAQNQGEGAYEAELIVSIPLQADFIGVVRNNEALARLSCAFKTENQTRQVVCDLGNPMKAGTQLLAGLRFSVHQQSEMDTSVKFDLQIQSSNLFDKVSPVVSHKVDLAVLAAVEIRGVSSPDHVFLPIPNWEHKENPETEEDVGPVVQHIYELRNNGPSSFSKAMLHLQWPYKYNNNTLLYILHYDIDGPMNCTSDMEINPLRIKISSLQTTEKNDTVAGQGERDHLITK
# Chain of integrin αvβ6 (P06756 891-1048 partner limits assumed): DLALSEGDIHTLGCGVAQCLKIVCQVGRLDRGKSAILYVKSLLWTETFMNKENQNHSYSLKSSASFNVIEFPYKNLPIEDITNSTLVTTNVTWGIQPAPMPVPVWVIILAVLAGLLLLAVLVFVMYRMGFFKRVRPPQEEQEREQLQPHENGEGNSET
# Chain of integrin αvβ6 (P18564 22-788): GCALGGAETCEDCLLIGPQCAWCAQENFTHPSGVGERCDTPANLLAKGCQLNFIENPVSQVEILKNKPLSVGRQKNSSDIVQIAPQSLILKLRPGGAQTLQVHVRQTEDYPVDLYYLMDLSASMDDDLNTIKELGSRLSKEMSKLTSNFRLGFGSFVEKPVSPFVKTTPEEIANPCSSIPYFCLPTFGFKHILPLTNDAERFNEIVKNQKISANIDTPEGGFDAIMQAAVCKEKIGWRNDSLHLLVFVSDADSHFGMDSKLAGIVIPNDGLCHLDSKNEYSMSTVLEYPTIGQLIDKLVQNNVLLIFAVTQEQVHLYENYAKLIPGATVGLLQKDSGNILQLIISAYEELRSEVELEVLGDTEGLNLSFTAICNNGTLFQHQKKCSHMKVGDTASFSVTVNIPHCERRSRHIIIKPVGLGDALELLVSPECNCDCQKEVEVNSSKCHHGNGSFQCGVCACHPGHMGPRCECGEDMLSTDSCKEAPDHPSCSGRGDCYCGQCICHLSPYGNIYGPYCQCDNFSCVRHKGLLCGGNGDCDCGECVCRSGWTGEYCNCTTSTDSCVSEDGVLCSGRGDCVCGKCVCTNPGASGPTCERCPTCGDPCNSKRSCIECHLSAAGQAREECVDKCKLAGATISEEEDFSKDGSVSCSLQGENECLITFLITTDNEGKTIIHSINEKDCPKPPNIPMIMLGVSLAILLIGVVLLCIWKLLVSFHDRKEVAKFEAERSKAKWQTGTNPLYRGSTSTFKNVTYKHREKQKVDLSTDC
# Method: as §1
# integrin αvβ1 = target: T1, integrin αvβ1 (Homo sapiens, UniProt P05556+P06756); assay: integrin αvβ1-mediated attachment of HEK-293 cells to TGFβ-1 latency-associated peptide; type: cell-based; details: mean and SD, at least 3 independent assays, LAP ligand
# T1 construct: HEK‐293 cells, which naturally express this integrin; endogenous in cells; host or cells: HEK-293
# T1 sequence (P06756 31-889 limits assumed): as the sequence (P06756 31-889 limits assumed) above
# T1 sequence (P06756 891-1048 partner limits assumed): as the sequence (P06756 891-1048 partner limits assumed) above
# T1 sequence (P05556 21-798): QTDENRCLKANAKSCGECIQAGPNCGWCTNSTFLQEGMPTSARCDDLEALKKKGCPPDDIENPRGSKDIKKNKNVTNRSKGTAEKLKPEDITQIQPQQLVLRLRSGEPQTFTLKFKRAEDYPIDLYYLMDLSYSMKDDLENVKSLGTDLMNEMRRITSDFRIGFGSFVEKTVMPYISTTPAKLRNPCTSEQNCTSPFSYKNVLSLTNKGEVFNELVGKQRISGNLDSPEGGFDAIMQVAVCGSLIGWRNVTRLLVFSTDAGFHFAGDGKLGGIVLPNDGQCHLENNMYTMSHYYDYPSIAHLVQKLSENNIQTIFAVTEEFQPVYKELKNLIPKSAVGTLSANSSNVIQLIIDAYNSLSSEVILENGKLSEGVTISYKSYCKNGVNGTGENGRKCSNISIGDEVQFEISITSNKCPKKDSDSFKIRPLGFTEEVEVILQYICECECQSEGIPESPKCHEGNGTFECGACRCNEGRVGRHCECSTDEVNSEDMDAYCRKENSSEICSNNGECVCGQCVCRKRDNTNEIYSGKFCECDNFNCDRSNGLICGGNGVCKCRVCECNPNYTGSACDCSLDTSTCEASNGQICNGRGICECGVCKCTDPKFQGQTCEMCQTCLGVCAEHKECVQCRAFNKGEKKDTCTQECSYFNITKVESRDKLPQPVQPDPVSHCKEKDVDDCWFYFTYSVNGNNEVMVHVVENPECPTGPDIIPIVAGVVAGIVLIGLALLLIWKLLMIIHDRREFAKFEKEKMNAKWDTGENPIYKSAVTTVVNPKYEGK
# Method: as §1
# integrin αvβ8 = target: T2, integrin αvβ8 (Homo sapiens, UniProt P06756+P26012); assay: integrin αvβ8-mediated attachment of transfected HEK-293 cells to LAP; type: cell-based; details: mean and SD, at least 3 independent assays; transfected HEK-293, LAP ligand; read-out: IC50, inhibition of αvβ8-mediated cell attachment
# T2 construct: expressed in transfected cells
# Method: as §1
# [1] = observation of deleterious effects in treated animals; type: in vivo, mouse; details: 100 mg/kg/day s.c. minipump, 28 days
# Method: (§2) Alzet osmotic minipumps (Cupertino, CA) were implanted subcutaneously in 8‐ to 10‐week‐old wild‐type male ICR outbred mice (Envigo) one day prior to induction of kidney injury to deliver vehicle (DMSO/H2O 1:1) or CWHM‐12 at a dose of 100 mg/kg per day. A single 5 mg/kg dose of aristolochic acid I sodium salt (Sigma‐Aldrich, A9451) in PBS was administered intraperitoneally to induce kidney injury, and mice were monitored daily for 27 days thereafter. Control (uninjured) mice were injected with an equal volume of PBS. Blood was obtained by maxillary vein puncture on days 0, 5 (peak injury), and 28 (study endpoint). For testing CWHM‐680, oral gavage (100 mg/kg per day) was started one day prior to injection of aristolochic acid I sodium salt and continued once daily until the study endpoint. Blood was obtained at days 0, 7, and 23 (study endpoint). […] Serum creatinine was measured by liquid chromatography–mass spectrometry (LC–MS/MS) at the University of Alabama O’Brien Center Bioanalytical Core. CWHM‐12 and CWHM‐680 concentrations were measured in plasma samples by liquid chromatography–tandem mass spectrometry (LC/MS/MS) using compound spiked into control plasma as a standard. All experiments were performed under protocols approved by the Institutional Animal Care and Use Committee at St. Louis University.
# [2] = tested on: pro-fibrotic gene expression in kidney; assay: aristolochic acid kidney injury model, kidney qRT-PCR; type: in vivo, mouse; details: AA-injured, 100 mg/kg/day s.c. minipump, day 27; vehicle 32-fold
# Method: as §2, with “University. […]” for “University.”
# integrin α8β1 = target: T3, integrin α8β1 (Homo sapiens, UniProt P05556+P53708); assay: integrin α8β1-mediated attachment of transfected HEK-293 cells to mouse nephronectin; type: cell-based; details: mean and SD, at least 3 independent assays; transfected HEK-293, nephronectin; read-out: IC50, inhibition of α8β1-mediated cell attachment
# T3 construct: expressed in transfected cells
# T3 sequence (P53708 39-906 limits assumed): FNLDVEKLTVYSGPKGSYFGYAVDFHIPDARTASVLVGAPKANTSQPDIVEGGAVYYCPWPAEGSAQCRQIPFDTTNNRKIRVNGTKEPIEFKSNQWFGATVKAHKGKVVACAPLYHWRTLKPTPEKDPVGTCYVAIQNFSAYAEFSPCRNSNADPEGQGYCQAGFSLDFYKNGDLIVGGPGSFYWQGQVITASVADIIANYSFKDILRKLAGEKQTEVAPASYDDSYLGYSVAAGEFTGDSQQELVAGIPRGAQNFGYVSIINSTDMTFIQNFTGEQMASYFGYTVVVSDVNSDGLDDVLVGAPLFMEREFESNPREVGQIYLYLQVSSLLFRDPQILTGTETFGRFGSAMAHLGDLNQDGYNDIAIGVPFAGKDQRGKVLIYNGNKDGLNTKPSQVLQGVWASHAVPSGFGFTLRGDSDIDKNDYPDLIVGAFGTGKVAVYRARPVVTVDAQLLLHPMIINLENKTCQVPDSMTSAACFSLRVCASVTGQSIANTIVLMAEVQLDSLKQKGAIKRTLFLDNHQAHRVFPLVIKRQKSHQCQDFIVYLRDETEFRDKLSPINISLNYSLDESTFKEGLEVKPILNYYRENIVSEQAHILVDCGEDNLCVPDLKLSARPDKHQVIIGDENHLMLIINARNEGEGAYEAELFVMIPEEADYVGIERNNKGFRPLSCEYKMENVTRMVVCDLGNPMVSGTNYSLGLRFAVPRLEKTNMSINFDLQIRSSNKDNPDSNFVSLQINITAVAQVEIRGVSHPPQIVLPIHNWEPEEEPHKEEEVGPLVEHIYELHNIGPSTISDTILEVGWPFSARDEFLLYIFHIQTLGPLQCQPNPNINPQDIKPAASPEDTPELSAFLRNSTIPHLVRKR
# T3 sequence (P53708 907-1063 partner limits assumed): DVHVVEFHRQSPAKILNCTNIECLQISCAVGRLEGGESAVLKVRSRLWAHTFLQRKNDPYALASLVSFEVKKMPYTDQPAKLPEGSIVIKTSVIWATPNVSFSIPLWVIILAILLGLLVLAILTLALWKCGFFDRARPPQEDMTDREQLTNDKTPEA
# T3 sequence (P05556 21-798): as the sequence (P05556 21-798) above
# Method: as §1
# [3] = tested on: non‐RGD‐binding integrins; set-up: method as in Henderson et al., 2013; details: ref Henderson et al., 2013; cited from earlier work
# integrin αvβ3 = integrin αvβ3 (Homo sapiens, UniProt P05106+P06756); assay: integrin αvβ3-mediated cell attachment to ligand; type: cell-based; details: mean and SD, at least 3 independent assays, read-out: IC50, inhibition of αvβ3-mediated cell attachment
# Chain of integrin αvβ3 (P06756 31-889 limits assumed): as the sequence (P06756 31-889 limits assumed) above
# Chain of integrin αvβ3 (P06756 891-1048 partner limits assumed): as the sequence (P06756 891-1048 partner limits assumed) above
# Chain of integrin αvβ3 (P05106 27-788): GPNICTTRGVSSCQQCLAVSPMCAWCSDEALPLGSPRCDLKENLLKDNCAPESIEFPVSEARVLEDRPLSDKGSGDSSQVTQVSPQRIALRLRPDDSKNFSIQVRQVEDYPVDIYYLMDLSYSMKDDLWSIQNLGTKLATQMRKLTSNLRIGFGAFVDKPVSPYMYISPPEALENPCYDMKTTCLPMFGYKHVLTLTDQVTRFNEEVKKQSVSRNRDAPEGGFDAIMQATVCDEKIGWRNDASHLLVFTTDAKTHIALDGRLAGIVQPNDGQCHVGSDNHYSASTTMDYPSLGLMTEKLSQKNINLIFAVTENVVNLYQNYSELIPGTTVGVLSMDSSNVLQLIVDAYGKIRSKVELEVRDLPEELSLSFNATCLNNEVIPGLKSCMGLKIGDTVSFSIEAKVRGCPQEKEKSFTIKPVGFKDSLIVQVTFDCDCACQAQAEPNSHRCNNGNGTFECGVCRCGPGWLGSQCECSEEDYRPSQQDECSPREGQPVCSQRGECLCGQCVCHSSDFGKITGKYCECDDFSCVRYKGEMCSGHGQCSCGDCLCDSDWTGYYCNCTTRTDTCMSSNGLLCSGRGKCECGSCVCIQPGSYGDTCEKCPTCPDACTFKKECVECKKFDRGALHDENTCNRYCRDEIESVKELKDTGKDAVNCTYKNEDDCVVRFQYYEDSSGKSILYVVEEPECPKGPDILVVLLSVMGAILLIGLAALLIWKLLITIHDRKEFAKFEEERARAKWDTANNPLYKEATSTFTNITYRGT
# Method: as §1
compound,measurement,setting,value
CC(C)(C)c1cc(Br)cc([C@H](CC(=O)O)NC(=O)CNC(=O)c2cc(O)cc(NC3=NCC(O)CN3)c2)c1 (stereo partly drawn) [CWHM‐12],IC50,integrin αvβ5,47 ± 26 nM
same,IC50,integrin αvβ6; listed as CWHM−12,0.31 ± 0.14 nM
same,IC50,integrin αvβ6,< 1 nM
same,IC50,"integrin αvβ1; listed as CWHM−12, read-out: IC50, inhibition of αvβ1-mediated cell attachment",0.29 ± 0.14 nM
same,IC50,"integrin αvβ1; read-out: IC50, inhibition of αvβ1-mediated cell attachment",< 1 nM
same,IC50,integrin αvβ8,5.8 ± 2.3 nM
same,obvious deleterious effects in treated animals,[1],did not observe obvious deleterious effects
same,Col1a1 mRNA expression increase by qRT-PCR compared with uninjured animals,[2],9 fold
same,IC50,integrin α8β1,35 ± 16 nM
same,effect on ligand binding by non‐RGD‐binding integrins,[3],nor does it affect ligand binding
same,IC50,integrin αvβ3; listed as CWHM−12,0.47 ± 0.45 nM
same,IC50,integrin αvβ3,< 1 nM

# From publication PMC7153038, “Pharmacologic inhibition of RGD‐binding integrins ameliorates fibrosis and improves function following kidney injury” (Physiological Reports, 2020)
